These are literature values, as cited in US7012096B2, “Composition for pain mediation and apparatus and method of use thereof” (Palladin Healthcare International, Inc., priority 1998, dated 2006).

Series [1] relates to human keratinocytes. The note with it: in vitro tissue culture.
Series [2] has as its system human fibroblasts. The note with it: in vitro tissue culture.

As for `CC(=O)O` [acetic acid], the “Concentration toxic to human keratinocytes” value in series [1] is given as “above 0.025%”. Besides, the “Concentration toxic to human fibroblasts” value in series [2] is on record as “above 0.025%”.
